Source: patent US20200289434A1, “RAPIDLY IMPROVING ENDOTHELIAL FUNCTION, REDUCING ARTERIAL STIFFNESS AND REVERSING CALCIFICATION OF BLOOD VESSELS BY ADMINISTERING VITAMIN K” (KAYDENCE PHARMA AS, priority 2019, published 2020)
Several values for one entry are separate records, joined by “and”; a condition that tells them apart may be missing. Equal entries are not always repeated.

Tests used:
ApoE/LDLR−/− mice [1] = test: Example 3 second part: histological assessment of area and composition of atherosclerotic plaque in BCA; format: in vivo; conditions: eight weeks
From the text: For the determination of atherosclerotic plaque area and composition isolated brachiocephalic artery (BCA) was dissected, fixed in 4% buffered formalin, and embedded in paraffin. 5 μm-thick serial sections of BCA were collected from the proximal to distal part of the artery. Staining with Unna's orcein combined with Martius, Scarlet and Blue trichrome (OMSB) was applied on every tenth section (50 μm interval between each section) for quantitative analysis of atherosclerotic plaques. The areas of particular components of atherosclerotic plaque as well as artery lumen and wall were determined after Columbus-based software processing (FIG. 9) using specially-designed algorithm as described in Gajda M, Jasztal A, Banasik T, Jasek-Gajda E, Chlopicki S. Combined orcein and martius scarlet blue (OMSB) staining for qualitative and quantitative analyses of atherosclerotic plaques in brachiocephalic arteries in apoE/LDLR−/− mice. Histochem Cell Biol 2017. doi:10.1007/s00418-017-1538-8. The parameters analyzed include vessel wall area (VWA), internal vessel area (IVA=plaque area+lumen area), plaque area (expressed as percent of internal wall area: plaque/IWA), and lumen area (expressed as percent of internal wall area: lumen/IWA).

matrix gla protein (MGP) = test: Clinical study: blood analysis of matrix gla protein carboxylation; format: in vivo, human; conditions: kidney transplant patients, 360 ug/day, 8 weeks
Method: (§1) Participants were enrolled in a clinical trial in which the effects of vitamin K2 were determined for patients who had recently undergone a kidney transplant. At the beginning of the study, patients were subjected to a non-invasive pulse wave velocity measurement to measure arterial stiffness/flexibility, as well as blood analysis. The study participants were then instructed to receive a specific daily dose of MenaQ7 vitamin K2 menaquinone-7 (360 ug/day) for a total of 8 weeks. At the end of 8 weeks, patients were again examined with a follow-up examination, a non-invasive pulse wave velocity measurement and blood analysis and drug treatment was discontinued.
As part of the blood analysis, carboxylated matrix gla protein (MGP) was measured as a direct measure of vitamin K2 activity. The carboxylated MGP inhibits calcification of blood vessels and Vitamin K2 stimulates carboxylation of MGP.

[2] = tested on: kidney transplantation patients; test: Clinical study: pulse wave velocity measurement of arterial stiffness; format: in vivo, human; conditions: kidney transplant patients, 360 ug/day, 8 weeks
Method: Clinical Study to study the efficacy and safety of Vitamin K2 supplementation on arterial stiffness, the rigidity of arterial walls, in kidney transplantation patients.
A clinical study was carried out. Arterial wall property measurements were taken at t=0 and t=8 weeks and show a dramatic improvement in arterial wall flexibility. This is good support for concluding that the ingestion of vitamin K, even over this short period, is an effective way of improving endothelial function, reducing arterial stiffness and reducing calcification. […] It is surprising and unexpected because calcification is a slow progressive process and it was thought that reversing this process would also be slow and progressive.
as §1

[3] = Example 3 second part: lipid profile, liver enzymes and blood count; conditions: eight weeks
ApoE/LDLR−/− mice [4] = test: Example 3 second part: MRI assessment of Ach-induced response in BCA and LCA, older mice; format: in vivo; conditions: eight weeks, 24-week-old mice
Method: Magnetic resonance imaging (MRI) experiments were performed using a 9.4T scanner (BioSpec 94/20 USR, Bruker, Germany) located in the Department of Magnetic Resonance Imaging, Institute of Nuclear Physics, Polish Academy of Sciences in Krakow. During the experiment, mice were anaesthetized using isoflurane (Aerrane, Baxter Sp. z o. o., Poland, 1.7 vol %) in an oxygen and air (1:2) mixture and imaged in the supine position. Activity of the heart, respiration, and body temperature (maintained at 37° C. using circulating warm water) were monitored using a Monitoring and Gating System (SA Inc., Stony Brook, N.Y., USA).
Endothelial function was assessed based on vascular responses to acetylcholine (Ach) administration in brachiocephalic artery (BCA), left common carotid artery (LCA) (FIGS. 6 A and B) and abdominal aorta (AA) (FIG. 6C) as well as to responses to increase in flow (flow-mediated dilatation, FMD) in femoral artery (FA) (FIG. 6D) as described in Bar A, Skorka T, Jasinski K, Sternak M, Bartel Z, Tyrankiewicz U, et al. Retrospectively-gated MRI for in vivo assessment of endothelium-dependent vasodilatation and endothelial permeability in murine models of endothelial dysfunction. NMR Biomed 2016; 29(8):1088.; Sternak M, Bar A, Adamski M G, Mohaissen T, Marczyk B, Kieronska A, et al. The Deletion of Endothelial Sodium Channel α (αENaC) Impairs Endothelium-Dependent Vasodilation and Endothelial Barrier Integrity in Endotoxemia in Vivo. […]
Vasomotor response was examined by comparing two time-resolved 3D images of the vessels prior to and 25 minutes after intraperitoneal Ach administration (Sigma-Aldrich, Poznan Poland: 50 μl, 16.6 mg/kg), as well as prior to and 5 minutes after vessel occlusion. […] End-diastolic volumes of vessels were analyzed using ImageJ software 1.46r (NIH Bethesda, Md., USA) and scripts written in Matlab (MathWorks, Natick, Mass., USA). […]

[5] = tested on: macrophages in BCA atherosclerotic plaque; test: Example 3 second part: immunohistochemical detection of macrophages (Mac-3) in atherosclerotic plaque in BCA; format: in vivo, mice; conditions: high dose (10 mg/kg b.w./day)
Method: For detection of macrophages in BCA, atherosclerotic plaque immunohistochemical staining was performed. After heat-induce epitope retrieval, with 10 mM sodium citrate buffer (pH 6), deparaffinised sections were blocked with 5% normal goat serum and 1% hydrogen peroxide. […] Next, sections were treated with biotinylated secondary antibody, followed by horseradish peroxidase-conjugated streptavidin. 3,3′-diaminobenzidine (DAB) as a chromogen was used for visualization of antibody-antigen interaction. Sections were counterstained with hematoxylin. Intensity of Mac-3 staining was estimated manually considering quantity and intensity of positive reactions. Final results are shown as a mean from two independent analysis.

CC(C)=CCC/C(C)=C/CC/C(C)=C/CC/C(C)=C/CC/C(C)=C/CC/C(C)=C/CC/C(C)=C/CC1=C(C)C(=O)c2ccccc2C1=O [MK-7, menaquinone-7]
plaque and lumen area expressed as percent of IWA (ApoE/LDLR−/− mice [1]; either low or high dose): did not change | plaque size vs non-treated mice (ApoE/LDLR−/− mice [1]; low (0.03) or high (10 mg/kg b.w./day) dose): not different | decrease in vessel wall area (VWA) (ApoE/LDLR−/− mice [1]; low and high dose, 24-week-old mice): about 5% | internal wall area (IWA) (ApoE/LDLR−/− mice [1]; lower dose, not visible for entire vessel): decreased only in the middle part of the vessel | mean reduction of levels of uncarboxylated MGP (matrix gla protein (MGP)): 55% | mean reduction in measured pulse-wave velocity [2]: 30% | MPV ([3]; 0.03 mg/kg): 5.20 ± 0.33 | MPV ([3]; 10 mg/kg): 4.97 ± 0.19 | change in volume of BCA after Ach injection (ApoE/LDLR−/− mice [4]; high dose 10 mg/kg b.w/day): 3.12% | change in volume of LCA after Ach injection (ApoE/LDLR−/− mice [4]; high dose 10 mg/kg b.w/day): 4.45% | change in volume of LCA after Ach injection (ApoE/LDLR−/− mice [4]; low dose 0.03 mg/kg b.w/day, listed as vitamin K2, 0.03 mg/kg/day): ~−3% and −3.92% | intensity of MAC-3 staining [5]: 139±29
